We go through 25 compounds from paper PMC7031302, “Design and synthesis of new energy restriction mimetic agents: Potent anti-tumor activities of hybrid motifs of aminothiazoles and coumarins” (Scientific Reports, 2020).

Common to all, as to type: cell-based, Human
One test concerns HT-29. As to the kind of experiment: MTT cell viability, HT-29. The note with it: for IC50: read-out: half-maximal inhibitory concentration (IC50) HT-29. How it is done: (§1) The potential cytotoxicity of 24 candidate compounds was initially evaluated at a single concentration level (5 μM). Then a full dose-response curve was plotted for each compound against different colorectal cancer cell lines (HCT116 and HT-29) by MTT assay after 72 h treatments. 4-hydroxycoumarin, OSU-CG5, and OSU-CG12 were used as positive controls. […] Compounds 9b, 9c, 9f, 9i, 11b, and 11c were selected for further studies to determine the full dose-response survival curves using different concentrations (0.1–20 µM) against CRC cell lines and normal fibroblast cell line (F180) at different time points (Fig. 2A–2F and supplementary material Page S63 and S64).
(§2) Human colorectal carcinoma cell lines (HCT116) and (HT-29) were obtained from the European Collection of Cell Cultures (ECACC, UK). The cell lines were cultured in Roswell Park Memorial Institute medium (RPMI-1640, Sigma-Aldrich-St. Louis, MO, USA) supplemented with 10% fetal bovine serum (Sigma-Aldrich-St. Louis, MO, USA) and 1% penicillin/streptomycin (Sigma-Aldrich- Louis, MO, USA). F180 cell line (Human Normal Fibroblast), was kindly given by professor Ekkehard Dikomey (University Cancer Center, Hamburg University, Hamburg, Germany) and were cultured in Dulbecco’s Modified Eagle’s medium (DMEM, Sigma-Aldrich-St. Louis, MO, USA) supplemented with 10% fetal bovine serum (Sigma-Aldrich-St. Louis, MO, USA) and 1% penicillin/streptomycin (Sigma-Aldrich- Louis, MO, USA). All cell incubations were done at 37 °C in a humidified atmosphere of 5% CO2.
(§3) Cell viability was assessed using, 3-(4,5-dimethylthiazol-2-yl)-2,5-diphenyltetrazolium bromide (MTT) assay as previously described. In summary, cancer cell lines or F180 were seeded in complete medium at the density of 3 × 10^3/well and 5 × 10^3/well respectively in 96 well flat-bottom plates. After 24 h, cells were incubated with the candidate compounds at the indicated concentration for (24, 48 or 72 h). DMSO was used as vehicle control and 4-Hydroxycoumarin was purchased from (Sigma-Aldrich, St. Louis, MO, USA) and Cisplatin from Hospira UK Ltd. At the end of treatment, the media were aspirated from each well and incubated with 200 µL of MTT tetrazolium dye (Sigma-Aldrich, St. Louis, MO, USA) at a final concentration of 0.5 mg/ml for 2 h at 37 °C. The reduced MTT crystals were solubilized in 200 µl/well of DMSO and the absorbance was measured at 570 nm using a microplate reader (Thermo-Scientific, Vantaa, Finland).

Another test deals with HCT116. The experiment in a line: MTT cell viability, HCT116. The conditions noted are these: for IC50: read-out: half-maximal inhibitory concentration (IC50) HCT116. Here is the method:
as §1, §2, §3

Test [1] deals with colorectal cancer cell lines, HCT116 and HT-29. As to the kind of experiment: MTT cell viability, colorectal cancer cell lines (summary statements). The note with it: for anticancer activities in initial screening, in words: HT-29 and HCT116 cancer cell lines; for IC50: both cell lines, summary statement. How it is done: as §1, §2, §3
[2] abbreviates: Homo sapiens, HT-29, 72 h, 72 h, MTT assay, mean ± SD (n = 6).
[3] abbreviates: Homo sapiens, HCT-116, 72 h, 72 h, MTT assay, mean ± SD (n = 6).
Where [4] appears, read: 72 h, MTT assay, mean ± SD (n = 6).

Each structure is given as a SMILES string. Read-outs that look alike come from different tables or passages of the source.

For `Cc1cc(=O)oc2cc(Nc3nc(-c4ccc(Cl)cc4)cs3)ccc12` [Compound 9c, 7-(4-(4-Chlorophenyl)thiazol-2-ylamino)-4-methyl-2H-chromen-2-one], the IC50 with HT-29 (setting [2]) is 370 ± 77 nM; with HCT116 (setting [3]) it was 0.31 ± 0.014 µM; in test [1] it was under 600 nM. Besides, the “anticancer activities in initial screening, in words” value (“anticancer activities” for short) in test [1] is given as “significant anticancer activities”.
Take `CCc1cc(=O)oc2cc(Nc3nc(-c4ccc(Br)cc4)cs3)ccc12` [Compound 10b, 7-(4-(4-Bromophenyl)thiazol-2-ylamino)-4-ethyl-2H-chromen-2-one]: the figures for the IC50 in the test with HT-29 (setting [2]) and in the test with HCT116 (setting [3]) were 2970 ± 200 nM and 3.03 ± 2.25 µM, respectively.
On the same counts, the results for `CCc1cc(=O)oc2cc(Nc3nc(-c4ccccc4)cs3)ccc12` [Compound 10a, 4-Ethyl-7-(4-phenylthiazol-2-ylamino)-2H-chromen-2-one] are over 30000 nM and over 30 µM.
For `CCCc1cc(=O)oc2cc(Nc3nc(-c4ccc(Cl)cc4)cs3)ccc12` [Compound 11c, 7-(4-(4-Chlorophenyl)thiazol-2-ylamino)-4-propyl-2H-chromen-2-one], the IC50 was 330 ± 32 nM in the test on HT-29 (setting [2]), 0.34 ± 0.0009 µM in the test on HCT116 (setting [3]) and under 600 nM in test [1]. Also, the “anticancer activities” value in test [1] is “significant anticancer activities”.
With `Cc1cc(=O)oc2cc(Nc3nc(-c4ccccc4)cs3)ccc12` [Compound 9a, 4-Methyl-7-(4-phenylthiazol-2-ylamino)-2H-chromen-2-one], the IC50 with HT-29 (setting [2]) worked out at 1540 ± 20 nM. Besides, the “anticancer activities” value in test [1] is “significant anticancer activities”.
`CCc1cc(=O)oc2cc(Nc3nc(-c4ccccc4[N+](=O)[O-])cs3)ccc12` [Compound 10h, 4-Ethyl-7-(4-(2-nitrophenyl)thiazol-2-ylamino)-2H-chromen-2-one]: the IC50 in the test with HT-29 (setting [2]) amounted to 1680 ± 470 nM; with HCT116 (setting [3]) it was 4.73 ± 1.93 µM.
As for `CCc1cc(=O)oc2cc(Nc3nc(-c4ccccc4OC)cs3)ccc12` [Compound 10i, 4-Ethyl-7-(4-(2-methoxyphenyl)thiazol-2-ylamino)-2H-chromen-2-one], the IC50 was determined as 3960 ± 1650 nM in the test on HT-29 (setting [2]) and 13.5 ± 0.2 µM with HCT116 (setting [3]).
On the same counts, the results for `CCCc1cc(=O)oc2cc(Nc3nc(-c4cccc([N+](=O)[O-])c4)cs3)ccc12` [Compound 11f, 7-(4-(3-Nitrophenyl)thiazol-2-ylamino)-4-propyl-2H-chromen-2-one] are 3660 ± 38 nM and over 30 µM.
Take `O=c1cc(O)c2ccccc2o1` [4-Hydroxycoumarin, reference compound]: the IC50 with HT-29 (Homo sapiens, HT-29, 72 h) was over 200000 nM; with HCT116 (Homo sapiens, HCT-116, 72 h), over 200 µM.
Take `N.N.[Cl][Pt][Cl]` [cisplatin, Cisplatin, reference compound]: the “IC50 of cisplatin as a single compound, HT-29” value with HT-29 (single compound, 72 h MTT) turned out to be 1.81 µg/mL. Also, in the test on HCT116 (single compound, 72 h MTT), the “IC50 of cisplatin as a single compound, HCT116” value stood at 1.93 µg/mL.
For the compound `CCc1cc(=O)oc2cc(Nc3nc(-c4ccc(Cl)cc4)cs3)ccc12` [Compound 10c, 7-(4-(4-Chlorophenyl)thiazol-2-ylamino)-4-ethyl-2H-chromen-2-one], the IC50 with HT-29 (setting [2]) stood at 1300 ± 127 nM; in the test on HCT116 (setting [3]) it was 3.54 ± 0.53 µM.
For `CCOc1ccc(-c2csc(Nc3ccc4c(C)cc(=O)oc4c3)n2)cc1` [Compound 9d, 7-(4-(4-Ethoxyphenyl)thiazol-2-ylamino)-4-methyl-2H-chromen-2-one], the IC50 in the test on HT-29 (setting [2]) came out at 3030 ± 20.5 nM; in the test on HCT116 (setting [3]), 3.21 ± 0.88 µM.
With `CCCc1cc(=O)oc2cc(Nc3nc(-c4cccc(OC)c4)cs3)ccc12` [Compound 11e, 7-(4-(3-Methoxyphenyl)thiazol-2-ylamino)-4-propyl-2H-chromen-2-one], the IC50 in the test on HT-29 (setting [2]) came to 8890 ± 813 nM; in the test with HCT116 (setting [3]), 28.6 ± 6.56 µM.
As to `COc1ccccc1-c1csc(Nc2ccc3c(C)cc(=O)oc3c2)n1` [Compound 9i, 7-(4-(2-Methoxyphenyl)thiazol-2-ylamino)-4-methyl-2H-chromen-2-one], the IC50 with HT-29 (setting [2]) is 320 ± 17 nM; in the test on HCT116 (setting [3]) it was 0.32 ± 0.041 µM; in test [1] it was under 600 nM. In addition, the “anticancer activities” value in test [1] is given as “significant anticancer activities”.
In the case of `CCC(CC)CN1C(=O)S/C(=C\c2ccc(O)c(C(F)(F)F)c2)C1=O` [OSU-CG5, reference compound], the IC50 in the test on HT-29 (setting [4]) is 10100 ± 373 nM; in the test on HCT116 (setting [4]) it was 2.85 ± 0.111 µM.
Regarding `CCCc1cc(=O)oc2cc(Nc3nc(-c4ccccc4[N+](=O)[O-])cs3)ccc12` [Compound 11h, 7-(4-(2-Nitrophenyl)thiazol-2-ylamino)-4-propyl-2H-chromen-2-one], the results for the IC50 in the test on HT-29 (setting [2]) and in the test with HCT116 (setting [3]) were 3960 ± 14 nM and 6.3 ± 0.605 µM, respectively.
On to `CCCc1cc(=O)oc2cc(Nc3nc(-c4ccc(Br)cc4)cs3)ccc12` [Compound 11b, 7-(4-(4-Bromophenyl)thiazol-2-ylamino)-4-propyl-2H-chromen-2-one], for which the IC50 with HT-29 (setting [2]) was 250 ± 4 nM; with HCT116 (setting [3]), 0.26 ± 0.016 µM; in test [1], under 600 nM. The “anticancer activities” value in test [1] was “significant anticancer activities”.
In the case of `Cc1cc(=O)oc2cc(Nc3nc(-c4cccc(F)c4)cs3)ccc12` [Compound 9g, 7-(4-(3-Fluorophenyl)thiazol-2-ylamino)-4-methyl-2H-chromen-2-one], the IC50 in the test with HT-29 (setting [2]) amounted to 2910 ± 1250 nM; in the test with HCT116 (setting [3]) it was 3.5 ± 0.93 µM.
As for `CCc1cc(=O)oc2cc(Nc3nc(-c4cccc(F)c4)cs3)ccc12` [Compound 10g, 4-Ethyl-7-(4-(3-fluorophenyl)thiazol-2-ylamino)-2H-chromen-2-one], the IC50 was 2340 ± 615 nM with HT-29 (setting [2]) and 4.08 ± 2.68 µM in the test on HCT116 (setting [3]).
On to `CCCc1cc(=O)oc2cc(Nc3nc(-c4ccccc4)cs3)ccc12` [Compound 11a, 7-(4-Phenylthiazol-2-ylamino)-4-propyl-2H-chromen-2-one], for which the IC50 was 2130 ± 300 nM in the test on HT-29 (setting [2]) and 6.76 ± 0.28 µM in the test on HCT116 (setting [3]).
For `CCc1cc(=O)oc2cc(Nc3nc(-c4cccc(OC)c4)cs3)ccc12` [Compound 10e, 4-Ethyl-7-(4-(3-methoxyphenyl)thiazol-2-ylamino)-2H-chromen-2-one], the results for the IC50 in the test with HT-29 (setting [2]) and in the test on HCT116 (setting [3]) were 13100 ± 1390 nM and over 30 µM, respectively.
Regarding `CCc1cc(=O)oc2cc(Nc3nc(-c4cccc([N+](=O)[O-])c4)cs3)ccc12` [Compound 10f, 4-Ethyl-7-(4-(3-nitrophenyl)thiazol-2-ylamino)-2H-chromen-2-one], the results for the IC50 with HT-29 (setting [2]) and with HCT116 (setting [3]) were 4410 ± 1370 nM and 10.3 ± 3.15 µM, respectively.
On the same counts, the results for `CCCc1cc(=O)oc2cc(Nc3nc(-c4cccc(F)c4)cs3)ccc12` [Compound 11g, 7-(4-(3-Fluorophenyl)thiazol-2-ylamino)-4-propyl-2H-chromen-2-one] are 1800 ± 760 nM and 4.08 ± 1.36 µM.
With `Cc1cc(=O)oc2cc(Nc3nc(-c4ccccc4[N+](=O)[O-])cs3)ccc12` [Compound 9h, 4-Methyl-7-(4-(2-nitrophenyl)thiazol-2-ylamino)-2H-chromen-2-one], the values for the IC50 in the test with HT-29 (setting [2]) and in the test on HCT116 (setting [3]) were over 30000 nM and over 30 µM, respectively.
On the same counts, the results for `COc1cccc(-c2csc(Nc3ccc4c(C)cc(=O)oc4c3)n2)c1` [Compound 9e, 7-(4-(3-Methoxyphenyl)thiazol-2-ylamino)-4-methyl-2H-chromen-2-one] are 3000 ± 159 nM and 3.05 ± 0.14 µM.
